Test results taken from US11571426B2, “Compositions for preventing or treating lupus” (CHONG KUN DANG PHARMACEUTICAL CORP., priority 2017, dated 2023).
Marks after values point to notes of the source that are not given here.

How the values were obtained:
NZB/W F1 female mice [1] = assay: Serum chemistry after long-term administration; assay type: in vivo, mouse; details: serum at autopsy
Description: (§1) 80 NZB/W F1 female mice (four weeks old) were purchased from Jackson Laboratory and maintained in an SPF breeding room with five mice per cage. Their weight and urine protein were measured at 24 weeks after birth (right before administration), and then all the animals except those having too much urine protein were divided into groups as shown in a table 2 below such that the urine protein and weight might be evenly distributed among the groups.
(§2) Then, the mice were administered as described in the table 2 once a day for about 19 weeks from 24 weeks after birth to 42 weeks after birth.
Data obtained from groups were compared using a Kruskal-Wallis (†p<0.05), *p<0.05 versus C group (Mann-Whitney U-test), ALT: alanine aminotransferase, AST: aspartate aminotransferase, ALP: alkaline phosphatase, TBIL: total bilirubin, TCHOL: total cholesterol, TG: triglyceride, TP: total protein, CPK: creatine phosphokinase)

NZB/W F1 female mice [2] = assay: Serum CXCL10 and CCL2 in SLE disease mouse; assay type: in vivo; details: 36 weeks old
Description: as §1, §2
Meanwhile, when a level of CXCL10 (IFN-inducible protein 10, IP-10) and CCL2 (MCP-1) in serum was measured at 36 weeks old, it was identified that the level of CXCL10 in serum was decreased in all the experimental groups, and the level of CCL2 in serum was decreased in the 50 mg/kg dosed group (FIG. 14).

NZB/W F1 female mice [3] = assay: Renal histopathological evaluation in SLE model mouse; assay type: in vivo
Description: as §1, §2
To identify an effect of the inventive pharmaceutical composition on kidney in the SLE disease model, a histopathological evaluation was performed.
First of all, a half of a left kidney of a mouse collected during the autopsy was fixed with 10% neutral buffered formalin and prepared as a paraffin block. Then, a histopathological evaluation was performed by means of hematoxylin and eosin staining (H&E, BBC Biochemical, Mount Vernon, Wash., USA), periodic acid-schiff staining (PAS, BBC Biochemical) and Masson's trichrome staining (BBC Biochemical).

[4] = system: TNFα secretion in LPS-stimulated human monocyte cell lines (THP-1); assay: Suppression of TNFα secretion in LPS-stimulated THP-1 (ELISA); assay type: cell-based; details: at both 100 nM and 300 nM
Description: To identify the efficacy of the inventive compounds on suppressing a TNFα secretion in immune responses, suppression of TNFα production, which was achieved by a treatment with compounds 374, 461, 500, 530 and 532 according to the present invention in LPS-stimulated human monocyte cell lines (THP-1), was quantified by means of an enzyme immuno-assay (ELISA).
Specifically, the THP-1 cell lines (ATCC) were cultured in an RPMI-1640 medium comprising 10% FBS. The cell lines were divided into a 24 well plate at a ratio of 1×10^5 cells per well, then treated with 100 ng/mL PMA (phorbol 12-myristate 13-acetate) for 24 hours, and then differentiated into macrophage. Then, the culture medium was replaced with a new one, then treated with a test drug for 24 hours, and then treated again with 10 ng/mL LPS (E. Coli, O55:B5) for four hours for stimulation. After that, supernatant was taken and used to measure the amount of TNFα secreted from the cells by means of a Human TNFα Instant ELISA kit (eBioscience, BMS223INST) according to a protocol provided by a manufacturer.

NZB/W F1 female mice [5] = assay: T cell populations in spleen (FACS) in SLE disease mouse; assay type: in vivo
Description: as §1, §2
To evaluate a pattern of immune T cell populations in spleen in the SLE disease mouse, a ratio of CD3, CD4, CD8a and CTLA4 expressions as well as a Treg proportion/Th1, Th2, Th17 and Treg master regulator (T-bet, GATA-3, ROR-γt, Foxp3) expression patterns were measured.
To that end, splenocytes were first obtained from the spleen obtained during the mouse autopsy by means of a 70 μm cell strainer (BD), and then red blood cells were hemolyzed by means of an EL buffer and washed with FACS buffer solution (5% BSA/PBS). After that, staining was performed at a concentration recommended by a manufacturer by means of PerCP-cy5.5-conjugated anti-mouse CD3 (ebioscience, Sandiego, Calif., USA), PE-Cyanine7-conjugated anti-mouse CD8a (ebioscience), FITC-conjugated anti-CD4 (BD), APC-conjugated anti-mouse CD25 (BD), PE-conjugated anti-mouse FoxP3 (BD), PE-conjugated anti-mouse RORγt (ebioscience), PE-conjugated anti-mouse T-bet (ebioscience), PE-conjugated anti-mouse GATA-3 (ebioscience), and PE-conjugated anti-mouse CTLA4 (ebioscience) antibodies.
The splenocytes and cell surface marker antibodies were immediately reacted. Before reacting FoxP3, RORγt, T-bet and GATA3 antibodies, the splenocytes were fixed by means of a FoxP3/Transcription Factor staining buffer set, then permeabilized, and then reacted with the antibodies. A ratio of CD4:CD8 in CD3 cells as well as a ratio of CD4+CD8-cells, CD4−CD8+ cells, CD4+CD8+ cells and double negative T cells were respectively measured and compared between the groups. To identify a ratio of FoxP3, RORγt, T-bet and GATA3, which were master regulators of Treg, Th17, Th1 and Th2, a ratio of CD4+CD25+FoxP3+ cells, CD4+CD25+RORγt+ cells, CD4+CD25+ T-bet+ cells and CD4+CD25+GATA3+ cells was respectively measured.

[6] = 50 mg/kg dosed group vs control group
[7] = spleen, CD3+ gated, experimental groups

`O=C(NO)c1ccc(CN(C(=O)N2CCOCC2)c2cccc(C(F)(F)F)c2)cc1` [Compound 374, N-(4-(hydroxycarbamoyl)benzyl)-N-(3-(trifluoromethyl)phenyl)morpholine-4-carboxamide] showed an ALP (NZB/W F1 female mice [1]; group D, 10 mg/kg/day i.p.) of 187.44 ± 20.75 U/I, an ALT (NZB/W F1 female mice [1]; group D, 10 mg/kg/day i.p.) of 18.10 ± 1.72 U/I and an AST (NZB/W F1 female mice [1]; group D, 10 mg/kg/day i.p.) of 44.20 ± 3.19 U/I. The Albumin (NZB/W F1 female mice [1]; group D, 10 mg/kg/day i.p.) was 1.91 ± 0.14 g/dL, the CPK (NZB/W F1 female mice [1]; group D, 10 mg/kg/day i.p.) was 86.70 ± 17.99 U/I and the Ca (NZB/W F1 female mice [1]; group D, 10 mg/kg/day i.p.) was 10.08 ± 0.40 mg/dL. The Glucose (NZB/W F1 female mice [1]; group D, 10 mg/kg/day i.p.) was 162.56 ± 9.36 mg/dL, the TBIL (NZB/W F1 female mice [1]; group D, 10 mg/kg/day i.p.) was 0.22 ± 0.03 mg/dL and the TCHOL (NZB/W F1 female mice [1]; group D, 10 mg/kg/day i.p.) was 193.60 ± 34.55 mg/dL. For the same compound, the TG (NZB/W F1 female mice [1]; group D, 10 mg/kg/day i.p.) was 241.00 ± 35.25 mg/dL, the TP (NZB/W F1 female mice [1]; group D, 10 mg/kg/day i.p.) was 4.74 ± 0.20 g/dL and the ALP (NZB/W F1 female mice [1]; group E, 30 mg/kg/day i.p.) was 155.92 ± 5.53* U/I. The ALT (NZB/W F1 female mice [1]; group E, 30 mg/kg/day i.p.) was 20.79 ± 0.78* U/I, the AST (NZB/W F1 female mice [1]; group E, 30 mg/kg/day i.p.) was 55.21 ± 5.17* U/I and the Albumin (NZB/W F1 female mice [1]; group E, 30 mg/kg/day i.p.) was 2.19 ± 0.11 g/dL. For the same compound, the CPK (NZB/W F1 female mice [1]; group E, 30 mg/kg/day i.p.) was 84.71 ± 8.39 U/I, the Ca (NZB/W F1 female mice [1]; group E, 30 mg/kg/day i.p.) was 9.65 ± 0.19 mg/dL and the Glucose (NZB/W F1 female mice [1]; group E, 30 mg/kg/day i.p.) was 191.29 ± 7.33* mg/dl. The TBIL (NZB/W F1 female mice [1]; group E, 30 mg/kg/day i.p.) was 0.26 ± 0.03 mg/dL, the TCHOL (NZB/W F1 female mice [1]; group E, 30 mg/kg/day i.p.) was 140.07 ± 14.48 mg/dL and the TG (NZB/W F1 female mice [1]; group E, 30 mg/kg/day i.p.) was 240.86 ± 56.19* mg/dl. For the same compound, the TP (NZB/W F1 female mice [1]; group E, 30 mg/kg/day i.p.) was 5.21 ± 0.19 g/dL, the ALP (NZB/W F1 female mice [1]; group F, 50 mg/kg/day i.p.) was 153.08 ± 4.78 U/I and the ALT (NZB/W F1 female mice [1]; group F, 50 mg/kg/day i.p.) was 29.07 ± 3.26* U/I. The AST (NZB/W F1 female mice [1]; group F, 50 mg/kg/day i.p.) was 59.00 ± 15.00 U/I, the Albumin (NZB/W F1 female mice [1]; group F, 50 mg/kg/day i.p.) was 2.26 ± 0.09* g/dl and the CPK (NZB/W F1 female mice [1]; group F, 50 mg/kg/day i.p.) was 125.86 ± 47.35 U/I. The Ca (NZB/W F1 female mice [1]; group F, 50 mg/kg/day i.p.) was 9.43 ± 0.16 mg/dL, the Glucose (NZB/W F1 female mice [1]; group F, 50 mg/kg/day i.p.) was 200.23 ± 3.91* mg/dl and the TBIL (NZB/W F1 female mice [1]; group F, 50 mg/kg/day i.p.) was 0.28 ± 0.04 mg/dL. For the same compound, the TCHOL (NZB/W F1 female mice [1]; group F, 50 mg/kg/day i.p.) was 129.57 ± 8.98 mg/dL, the TG (NZB/W F1 female mice [1]; group F, 50 mg/kg/day i.p.) was 183.29 ± 15.00 mg/dL and the TP (NZB/W F1 female mice [1]; group F, 50 mg/kg/day i.p.) was 5.35 ± 0.16* g/dl. The “level of CCL2 in serum” value (NZB/W F1 female mice [2]; 50 mg/kg dosed group) was “decreased”, the “level of CXCL10 in serum” value (NZB/W F1 female mice [2]; all the experimental groups) was “decreased” and the “infiltration of inflammatory cells in kidney (marks 0-4)” value (NZB/W F1 female mice [3]; 30 and 50 mg/kg dosed groups) was “remarkably excellent effect of reducing the infiltration of inflammatory cells”. For the same compound, the “degree of infiltration of inflammatory cells in kidney (marks 0-4)” value (NZB/W F1 female mice [3]; experimental groups) was “decreased”, the “level of TNFα secretion” value [4] was “remarkably decreased” and the “ratio of CD4+T-bet+/CD4+GATA-3+” value (NZB/W F1 female mice [5]; 30 mg/kg and 50 mg/kg dosed groups vs control group) was “more significantly decreased”. For the same compound, the “T-bet expression in CD4+ cells” value (NZB/W F1 female mice [5]; [6]) was “significantly lower”, the “ratio of CD4+CD25+ cells/CD4+ cells” value (NZB/W F1 female mice [5]; [6]) was “significantly lower” and the “ratio of CD25+ cells” value (NZB/W F1 female mice [5]; [6]) was “significantly lower”. The “ratio of CD4−CD8+ T cells” value (NZB/W F1 female mice [5]; [7]) was “increased”, the “ratio of CD4−CD8− T cells” value (NZB/W F1 female mice [5]; [7]) was “decreased” and the “ratio of CD4+CD25+Foxp3+, CD4+CD25+RORγt+, CD4+CD25+ T-bet+ and CD4+CD25+GATA-3+ cells” value (NZB/W F1 female mice [5]; spleen, between the groups) was “a significance between the groups was not observed yet”. For the same compound, the “ratio of CD4+CD8−: CD4−CD8+ T cells” value (NZB/W F1 female mice [5]; spleen, experimental groups) was “tended to decrease as an administered dose was increased”.
